Reference: US9480671B2, “Reduction of risk of obesity” (Nestec S.A., priority 2009, dated 2016)

Legend:
[1] = Fatty acid composition in plasma phospholipids of guinea pig pups after suckling/weaning diet; assay type: in vivo; settings: compared to the control group, Table 2
Text: (§1) This example investigates the effect of feeding diets supplemented or not with ARA to newborn guinea pig pups on the development of total fat mass of the pups in the post-weaning period. The infant guinea pig is considered to be a good animal model to study the development fat mass in human infants: Indeed, like newborn human infants, guinea pig pups are born with an appreciable amount of body fat whilst newborn rat and mice pups are very lean. Newborn male guinea pigs were divided into two groups with 20 animals per group. Each group was fed a suckling/weaning diet in which 44% of the energy was supplied by fat for 21 days. The different diets were isocaloric and differed only in their ARA contents. The ARA diet contained 1.5% ARA based on total fatty acids and the control diet contained no ARA. The group receiving ARA diet is coded “ARA diet” or “+AA” in the below and in the figures. The group receiving no ARA is coded “control diet” or −AA″ in the below and in the figures. The levels of linoleic acid and α-linolenic acid were kept relatively constant between the diets such that the ratio of linoleic acid to α-linolenic acid was about 35. […] Body weight and fat mass were recorded at days 21, 51, 79, 107, 128 and 136 and plasma fatty acid composition, and plasma insulin concentrations were recorded at day 21 and day 136.

[2] = generally observed, estimated; cited from earlier work
[3] = system: clonal preadipocytes; settings: compared to PPAR agonists or saturated, mono-unsaturated and n-3 polyunsaturated fatty acids; cited from earlier work
[4] = Fatty acid composition in plasma triglycerides of guinea pig pups after suckling/weaning diet; assay type: in vivo; settings: compared to the control group, Table 3
Text: as §1

incorporation of ARA in plasma phospholipids [1] | incorporation of ARA in plasma triglycerides [4] | Structure (SMILES) | maximum amount of ARA in the diet that does not induce adverse effects [2] | differentiation of clonal preadipocytes [3]
higher | higher | CCCCC/C=C\C/C=C\C/C=C\C/C=C\CCCC(=O)O [ARA, arachidonic acid (C20:4n-6)] | about 100 mg ARA/kg/day | substantially promoted
 |  | CCCCC[C@H](O)/C=C/[C@@H]1[C@H]2C/C(=C/CCCC(=O)O)C[C@H]2C[C@H]1O [carbacyclin, reference compound] |  | mimicked
